Measured values published in PubChem BioAssay (NCI).
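Method: 48-hour compound exposure of cells in 96-well plates, five concentrations, linear interpolation of endpoints. The concentration for full growth arrest is given as TGI.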

Legend:
Assay in all cases: NCI-60 cell line screen, 48 h
[1] = system: SK-OV-3 ovarian
[2] = system: A549 NSCLC
[3] = system: MDA-N
[4] = system: BT-549 breast
[5] = system: M14 melanoma
[6] = system: HCT-116 colon
[7] = system: RXF 393 renal
[8] = system: NCI/ADR-RES ovarian
[9] = system: HL-60(TB) leukemia
[10] = system: HOP-62 NSCLC
[11] = system: TK-10 renal
[12] = system: SN12C renal
[13] = system: RPMI-8226 leukemia
[14] = system: LOX IMVI melanoma
[15] = system: HCT-15 colon
[16] = system: OVCAR-8 ovarian
[17] = system: CCRF-CEM leukemia
[18] = system: SK-MEL-28 melanoma
[19] = system: COLO 205 colon
[20] = system: SF-539 CNS
[21] = system: SK-MEL-5 melanoma
[22] = system: OVCAR-3 ovarian
[23] = system: DU-145 prostate
[24] = system: KM12 colon
[25] = system: EKVX NSCLC
[26] = system: MALME-3M melanoma
[27] = system: K-562 leukemia
[28] = system: HT29 colon
[29] = system: OVCAR-4 ovarian
[30] = system: UACC-62 melanoma
[31] = system: U251 CNS
[32] = system: UACC-257 melanoma
[33] = system: HOP-92 NSCLC
[34] = system: NCI-H226 lung
[35] = system: 786-0 renal
[36] = system: MDA-MB-231 breast
[37] = system: SF-295 CNS
[38] = system: SK-MEL-2 melanoma
[39] = system: SW-620 colon
[40] = system: SNB-19 CNS
[41] = system: SF-268 CNS
[42] = system: MCF7 breast
[43] = system: HCC-2998 colon
[44] = system: OVCAR-5 ovarian
[45] = system: HS 578T breast
[46] = system: A498 renal
[47] = system: MOLT-4 leukemia
[48] = system: SNB-75 CNS
[49] = system: MDA-MB-435
[50] = system: NCI-H460 lung
[51] = system: UO-31 renal
[52] = system: NCI-H23 lung
[53] = system: PC-3 prostate
[54] = system: CAKI-1 renal
[55] = system: ACHN renal
[56] = system: IGROV1 ovarian
[57] = system: NCI-H522 lung
[58] = system: SR leukemia

Measured: TGI

CC(C)C(=O)OCC1CCCN2CCCCC12 (stereo not given)
97.6 µM: [28]
not listed: [56] | [57] | [58]
> 100 µM: all other assays above

CC(C)OC(=O)C1=C2c3ncccc3C(=O)N2[C@@H](Cl)[C@@H](Cl)[C@@H]1Cl
95.9 µM: [47]
90.4 µM: [12]
not listed: [1] | [17] | [48]
> 100 µM: all other assays above
